Assays:
Type in all cases: cell-based, mouse
[1] = system: Flk1+ MPCs; test: Differentiation of MCs from Flk1+ MPCs, FACS of αSMA+ MCs; settings: Y27632 10 μM; ML7 5 μM
Experimental: FIGS. 11A-11D. ROCK suppression promotes the differentiation of ECs through PTEN-Akt signaling and inhibits the differentiation of MCs through MyPT-MLC signaling. (FIG. 11A) Representative FACS analysis of CD31+/CD144+ ECs incubated with 0.1% DMSO or LY294002 (20┌ M; LY) in the presence of PBS (Control) or Y27632 (10┌ M; Y). (FIG. 11B) % of CD31+/CD144+ EC population. Each group, n=3. *p<0.01 versus 0. Each group, n=3. *p<0.01 versus DMSO; ^#p<0.01 versus Y27632. (FIG. 11C) Representative FACS analysis of ┌ SMA+MCs or CD144+ ECs incubated with 0.1% DMSO or ML7 (5 ┌ M) in the presence of PBS (Control) or Y27632 (10┌ M). (FIG. 11D) % of ┌ SMA+MC population. Each group, n=3. *p<0.01 versus 0. Each group, n=3. *p<0.01 versus DMSO. n.s. represents statistically non-significant.
Analysis and sorting for CMs were performed at day 10.5. We harvested differentiated Flk1+ MPCs on OP9 cells with 0.25% trypsin-EDTA or dissociation buffer (Invitrogen). Cardiac troponin-T (cTnT)+ and ┌ smooth muscle actin (SMA)+ cells were analyzed after permeabilization using Cytofix/Cytoperm solution (BD Biosciences) for 15 min. After permeabilization, the cells were incubated for 30 min with anti-mouse cTnT (NeoMarkers) monoclonal antibody. […] Data were analyzed using FlowJo Version 7.5.4 software (TreeStar).

[2] = system: ICAM2+ ECs; test: Cell adhesion assay, ICAM2+ ECs; settings: 6 hrs after plating; in the presence of VEGF-A
Experimental: Sorted Flk1+ MPCs or ICAM2+ ECs were plated onto Matrigel coated plates at a density of 10,000 cells/cm^2. Six hrs after plating, non-adherent cells were removed by washing and the cell number of adherent cells was counted following trypsinization. The percentage of adherent cells was calculated as (counted cell number/initial seeded cell number)×100.

[3] = system: Flk1+ MPCs; test: Immunofluorescence staining of differentiating Flk1+ MPCs (CD144, αSMA, PHH3)
Experimental: Cultured cells were fixed with 2% paraformaldehyde (PFA) and blocked with 5% goat (or donkey) serum in PBST (0.3% Triton X-100 in PBS) for 1 hr at room temperature (RT). The cells were incubated overnight at 4┌ C with the following primary antibodies: anti-mouse CD144 (clone 11D4.1, BD Pharmingen™), anti-mouse phospho-histone H3 (rabbit polyclonal, Upstate), anti-mouse cTnT (NeoMarkers), Cy3-conjugated anti-┌ SMA (clone 1A4, Sigma), and anti-mouse CD31 (clone 2H8, Chemicon). After washing in PBST 4 times, the cells were incubated for 2 hrs at RT with the following secondary antibodies: Cy3-conjugated anti-rabbit IgG (Jackson ImmunoResearch), Cy3-conjugated anti-hamster IgG (Jackson ImmunoResearch), Cy3-conjugated anti-mouse IgG antibody (Jackson ImmunoResearch) and FITC or Cy3-conjugated anti-rat (Jackson ImmunoResearch). F-actin and nuclei were stained with TRITC-phalloidin (Invitrogen) and 4′,6-diamidino-2-phenylindole (DAPI, Invitrogen), respectively. The cells were then mounted in fluorescent mounting medium (DAKO Corporation).

[4] = system: ESC; test: Estimation of number of ECs generated from one ESC in the 2D Matrigel system; settings: day 8.5
Experimental: FIG. 16. Estimation and comparison of number of ECs generated from one ESC grown with indicated agents in the 2D Matrigel system at day 6.5 and 8.5. Estimation was calculated from 5 independent incubations.
To maximize the amount of ECs obtained from ESC, we expanded the ICAM2+ ECs for 2 days using the same culture system with VEGF-A and Y27632 (FIG. 14A). When the ECs were grown for 2 days without either VEGF-A or Y27632, the population of CD31+/CD144+ ECs underwent a decrease of ˜30% from the initial population of ˜90% (FIG. 14B-D). […] This way, we were further able to obtain ˜4.2-fold expansion of CD31+/CD144+ ECs from the ICAM2+ ECs (FIGS. 14B-F) In the presence of VEGF-A, Y27632 promoted the adhesion of ICAM2+ ECs onto the plate by 1.3-fold at 6 hrs after plating (FIG. 14G). In these purified ECs, Y27632 and VEGF-A each promoted the proliferation of ECs to a similar level, and combination of Y27632 and VEGF-A promoted EC proliferation to a greater degree. […] Based on these findings, we conclude that further expansion of high purity ECs (>90%) could be achieved from ESC by combination of simultaneous ROCK suppression and VEGF-stimulation—these high purity ECs are hereafter referred to as “VEGF-A plus Y27632-induced and anti-ICAM2 antibody-sorted ECs (VYI-ECs)” (FIG. 14A). […]

[5] = system: Flk1+ MPCs; test: Apoptosis assay (Annexin V/PI) in differentiating Flk1+ MPCs; settings: 6 and 36 hrs
Experimental: Apoptosis assay was performed as previously described. To determine the cell cycle, BrdU/7-AAD cell cycle analysis was performed according to the manufacturer's instructions (BD Pharmingen™). Briefly, cells were incubated with BrdU (1 mM) for 1 hr, dissociated with dissociation buffer, and stained with anti-CD144 antibody. The cells were then fixed, permeabilized, and fixed once more, followed by 1 hr incubation with DNase I (200 U) at 37┌ C. After incubation with FITC-conjugated anti-BrdU antibody for 20 min at RT, the cells were stained with 7-AAD. The cells were analyzed by FACS Aria II and the data were analyzed using FlowJo software.

C[C@@H](N)[C@H]1CC[C@H](C(=O)Nc2ccncc2)CC1 [Y27632]
reduction of αSMA+MC population [1]: ~83%
adhesion of ICAM2+ ECs onto the plate [2]: 1.3 fold
population of PHH3+/CD144+ ECs compared to control ([3]; 36 hrs, Y27632 10 μM plus VEGF-A): 3.7 fold
number of surrounding αSMA+MCs ([3]; day 6.5, Y27632 10 μM): decreased
size and number of CD144+ EC colonies ([3]; day 6.5, Y27632 10 μM): increased
number of ECs generated from one ESC (from ˜73 Flk1+ MPCs) [4]: ~36
population of Annexin V+/PI- apoptotic cells [5]: did not significantly change
